Measurements taken from doi:10.1101/2021.04.08.439011v1 (biorxiv, 2021).
Like-named read-outs stand apart in the source and are kept apart here.

Columns and labels:
JAK1 = JAK1 (Homo sapiens, UniProt P23458); conditions: binder
SNARK = SNARK (Homo sapiens, UniProt Q9H093); conditions: 1 µM; binder
MEK5 = MEK5 (Homo sapiens, UniProt Q13163); conditions: 1 µM; binder
FLT3(ITD,F691L) = FLT3(ITD,F691L) (Homo sapiens, UniProt P36888, F691L/ITD); conditions: 1 µM; binder
CAMK2G = CAMK2G (Homo sapiens, UniProt Q13555); conditions: 1 µM; binder
Chain of CAMK2G (Q13555 whole entry): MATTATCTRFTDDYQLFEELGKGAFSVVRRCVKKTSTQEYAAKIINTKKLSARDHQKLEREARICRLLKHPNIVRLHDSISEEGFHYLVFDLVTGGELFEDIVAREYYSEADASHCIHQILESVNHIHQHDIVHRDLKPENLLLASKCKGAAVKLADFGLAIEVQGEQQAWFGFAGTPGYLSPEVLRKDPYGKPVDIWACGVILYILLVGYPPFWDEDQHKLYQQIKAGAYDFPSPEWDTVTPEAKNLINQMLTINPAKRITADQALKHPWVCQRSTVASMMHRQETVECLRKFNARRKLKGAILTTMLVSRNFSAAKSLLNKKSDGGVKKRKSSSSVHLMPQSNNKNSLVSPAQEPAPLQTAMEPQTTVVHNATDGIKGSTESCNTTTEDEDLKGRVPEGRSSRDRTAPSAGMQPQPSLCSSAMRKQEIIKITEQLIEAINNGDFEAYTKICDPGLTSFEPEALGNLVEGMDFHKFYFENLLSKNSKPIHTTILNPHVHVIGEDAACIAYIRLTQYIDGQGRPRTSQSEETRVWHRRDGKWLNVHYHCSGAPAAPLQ

PCTK2 = PCTK2 (Homo sapiens, UniProt Q00537); conditions: 1 µM; binder
PLK4 = PLK4 (Homo sapiens, UniProt O00444); conditions: 1 µM; binder
EGFR(G719S) = EGFR(G719S) (Homo sapiens, UniProt P00533, G719S); conditions: 1 µM; binder
BMPR1A = BMPR1A (Homo sapiens, UniProt P36894); conditions: 1 µM; binder
PRKD3 = PRKD3 (Homo sapiens, UniProt O94806); conditions: 1 µM; binder
NEK6 = NEK6 (Homo sapiens, UniProt Q9HC98); conditions: 1 µM; binder
DYRK2 = DYRK2 (Homo sapiens, UniProt Q92630); conditions: 1 µM; binder
IRAK4 = IRAK4 (Homo sapiens, UniProt Q9NWZ3); conditions: 1 µM; binder
PHKG1 = PHKG1 (Homo sapiens, UniProt Q16816); conditions: 1 µM; binder
MYLK3 = MYLK3 (Homo sapiens, UniProt Q32MK0); conditions: 1 µM; binder
Chain of MYLK3 (Q32MK0 whole entry): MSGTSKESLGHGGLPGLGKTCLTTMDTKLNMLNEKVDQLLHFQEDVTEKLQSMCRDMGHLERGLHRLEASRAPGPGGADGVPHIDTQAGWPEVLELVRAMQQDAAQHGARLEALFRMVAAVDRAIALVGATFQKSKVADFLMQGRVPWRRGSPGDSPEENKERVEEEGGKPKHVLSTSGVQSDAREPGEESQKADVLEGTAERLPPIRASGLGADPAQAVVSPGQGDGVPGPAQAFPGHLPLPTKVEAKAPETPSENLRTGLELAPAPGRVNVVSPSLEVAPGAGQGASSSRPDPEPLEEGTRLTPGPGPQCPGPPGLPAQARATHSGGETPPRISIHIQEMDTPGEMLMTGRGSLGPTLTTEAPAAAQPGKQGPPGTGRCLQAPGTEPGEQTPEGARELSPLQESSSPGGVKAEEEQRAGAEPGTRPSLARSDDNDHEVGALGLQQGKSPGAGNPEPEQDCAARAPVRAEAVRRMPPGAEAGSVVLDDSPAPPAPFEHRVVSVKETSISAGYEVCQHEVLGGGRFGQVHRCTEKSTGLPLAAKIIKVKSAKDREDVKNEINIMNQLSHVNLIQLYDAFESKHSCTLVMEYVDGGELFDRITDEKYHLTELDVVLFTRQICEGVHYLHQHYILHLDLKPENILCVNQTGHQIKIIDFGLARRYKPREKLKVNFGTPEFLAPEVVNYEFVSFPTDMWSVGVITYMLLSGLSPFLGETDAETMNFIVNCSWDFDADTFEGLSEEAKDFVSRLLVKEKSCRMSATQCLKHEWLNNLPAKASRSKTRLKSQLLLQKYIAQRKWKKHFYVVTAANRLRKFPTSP

CAMKK2 = CAMKK2 (Homo sapiens, UniProt Q96RR4); conditions: 1 µM; binder
TNK1 = TNK1 (Homo sapiens, UniProt Q13470); conditions: 1 µM; binder
Chain of TNK1 (Q13470 whole entry): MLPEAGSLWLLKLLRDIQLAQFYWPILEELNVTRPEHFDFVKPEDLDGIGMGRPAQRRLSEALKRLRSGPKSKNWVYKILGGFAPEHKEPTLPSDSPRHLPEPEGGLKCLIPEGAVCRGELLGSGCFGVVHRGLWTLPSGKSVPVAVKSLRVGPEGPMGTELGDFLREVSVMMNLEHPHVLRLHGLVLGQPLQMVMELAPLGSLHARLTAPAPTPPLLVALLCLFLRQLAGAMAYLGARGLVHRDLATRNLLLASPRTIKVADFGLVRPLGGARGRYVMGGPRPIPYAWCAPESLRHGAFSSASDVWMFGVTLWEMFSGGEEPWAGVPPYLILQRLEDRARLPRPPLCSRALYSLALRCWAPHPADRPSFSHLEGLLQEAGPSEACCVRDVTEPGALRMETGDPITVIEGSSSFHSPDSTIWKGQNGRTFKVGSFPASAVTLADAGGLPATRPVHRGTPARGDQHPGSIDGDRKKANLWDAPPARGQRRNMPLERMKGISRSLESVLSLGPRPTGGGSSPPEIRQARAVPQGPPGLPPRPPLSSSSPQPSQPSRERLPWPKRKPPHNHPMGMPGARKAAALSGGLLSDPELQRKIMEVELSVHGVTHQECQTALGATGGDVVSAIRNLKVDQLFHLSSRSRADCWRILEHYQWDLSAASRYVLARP

MST3 = MST3 (Homo sapiens, UniProt Q9Y6E0); conditions: 1 µM; binder
PIK3CA(E545K) = PIK3CA(E545K) (Homo sapiens, UniProt P42336, E545K); conditions: 1 µM; binder
Chain of PIK3CA(E545K) (P42336 whole entry E545K): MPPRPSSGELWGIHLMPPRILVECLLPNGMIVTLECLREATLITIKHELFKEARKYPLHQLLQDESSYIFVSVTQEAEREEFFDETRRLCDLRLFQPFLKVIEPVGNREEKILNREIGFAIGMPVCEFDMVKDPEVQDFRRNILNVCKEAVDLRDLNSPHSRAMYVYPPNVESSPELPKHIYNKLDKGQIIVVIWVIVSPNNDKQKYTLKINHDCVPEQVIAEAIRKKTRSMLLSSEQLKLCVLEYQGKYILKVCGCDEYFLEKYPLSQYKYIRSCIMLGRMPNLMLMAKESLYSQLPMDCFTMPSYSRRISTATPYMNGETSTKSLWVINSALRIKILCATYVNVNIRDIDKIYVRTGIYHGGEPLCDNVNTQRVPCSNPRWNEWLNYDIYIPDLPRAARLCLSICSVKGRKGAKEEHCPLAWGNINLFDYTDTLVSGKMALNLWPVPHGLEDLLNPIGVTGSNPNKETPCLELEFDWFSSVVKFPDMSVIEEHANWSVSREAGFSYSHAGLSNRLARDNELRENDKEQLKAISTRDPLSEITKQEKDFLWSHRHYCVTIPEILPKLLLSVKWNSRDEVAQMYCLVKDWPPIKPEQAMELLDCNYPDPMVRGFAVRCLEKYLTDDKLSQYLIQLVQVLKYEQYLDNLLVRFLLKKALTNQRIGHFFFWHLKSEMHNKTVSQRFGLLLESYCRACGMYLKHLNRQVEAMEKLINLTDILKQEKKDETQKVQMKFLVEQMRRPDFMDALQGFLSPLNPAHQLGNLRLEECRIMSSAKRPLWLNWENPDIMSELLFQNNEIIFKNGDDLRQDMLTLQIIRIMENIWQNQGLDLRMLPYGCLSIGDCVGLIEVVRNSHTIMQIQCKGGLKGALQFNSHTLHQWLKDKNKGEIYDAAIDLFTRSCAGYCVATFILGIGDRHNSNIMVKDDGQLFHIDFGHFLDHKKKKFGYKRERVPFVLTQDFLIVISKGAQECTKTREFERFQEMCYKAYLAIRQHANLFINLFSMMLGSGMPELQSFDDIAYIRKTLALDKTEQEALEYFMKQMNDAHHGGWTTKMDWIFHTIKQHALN

PIK3CA(M1043I) = PIK3CA(M1043I) (Homo sapiens, UniProt P42336, M1043I); conditions: 1 µM; binder
Chain of PIK3CA(M1043I) (P42336 whole entry M1043I): as the sequence (P42336 whole entry E545K) above, with K545E, M1043I counted along it

KIT(A829P) = KIT(A829P) (Homo sapiens, UniProt P10721, A829P); conditions: 1 µM; binder
CSNK1A1 = CSNK1A1 (Homo sapiens, UniProt P48729); conditions: 1 µM; binder
PRKR = PRKR (Homo sapiens, UniProt P19525); conditions: 1 µM; binder
LKB1 = LKB1 (Homo sapiens, UniProt Q15831); conditions: 1 µM; binder
RIOK3 = RIOK3 (Homo sapiens, UniProt O14730); conditions: 1 µM; binder
PIK3CA(E545A) = PIK3CA(E545A) (Homo sapiens, UniProt P42336, E545A); conditions: 1 µM; binder
Chain of PIK3CA(E545A) (P42336 whole entry E545A): as the sequence (P42336 whole entry E545K) above, with K545A counted along it

CSF1R = CSF1R (Homo sapiens, UniProt P07333); conditions: 1 µM; binder
FLT3(R834Q) = FLT3(R834Q) (Homo sapiens, UniProt P36888, R834Q); conditions: 1 µM; binder
PIK3C2G = PIK3C2G (Homo sapiens, UniProt O75747); conditions: 1 µM; binder
TRKB = TRKB (Homo sapiens, UniProt Q16620); conditions: 1 µM; binder

Chain of JAK1 (P23458 whole entry): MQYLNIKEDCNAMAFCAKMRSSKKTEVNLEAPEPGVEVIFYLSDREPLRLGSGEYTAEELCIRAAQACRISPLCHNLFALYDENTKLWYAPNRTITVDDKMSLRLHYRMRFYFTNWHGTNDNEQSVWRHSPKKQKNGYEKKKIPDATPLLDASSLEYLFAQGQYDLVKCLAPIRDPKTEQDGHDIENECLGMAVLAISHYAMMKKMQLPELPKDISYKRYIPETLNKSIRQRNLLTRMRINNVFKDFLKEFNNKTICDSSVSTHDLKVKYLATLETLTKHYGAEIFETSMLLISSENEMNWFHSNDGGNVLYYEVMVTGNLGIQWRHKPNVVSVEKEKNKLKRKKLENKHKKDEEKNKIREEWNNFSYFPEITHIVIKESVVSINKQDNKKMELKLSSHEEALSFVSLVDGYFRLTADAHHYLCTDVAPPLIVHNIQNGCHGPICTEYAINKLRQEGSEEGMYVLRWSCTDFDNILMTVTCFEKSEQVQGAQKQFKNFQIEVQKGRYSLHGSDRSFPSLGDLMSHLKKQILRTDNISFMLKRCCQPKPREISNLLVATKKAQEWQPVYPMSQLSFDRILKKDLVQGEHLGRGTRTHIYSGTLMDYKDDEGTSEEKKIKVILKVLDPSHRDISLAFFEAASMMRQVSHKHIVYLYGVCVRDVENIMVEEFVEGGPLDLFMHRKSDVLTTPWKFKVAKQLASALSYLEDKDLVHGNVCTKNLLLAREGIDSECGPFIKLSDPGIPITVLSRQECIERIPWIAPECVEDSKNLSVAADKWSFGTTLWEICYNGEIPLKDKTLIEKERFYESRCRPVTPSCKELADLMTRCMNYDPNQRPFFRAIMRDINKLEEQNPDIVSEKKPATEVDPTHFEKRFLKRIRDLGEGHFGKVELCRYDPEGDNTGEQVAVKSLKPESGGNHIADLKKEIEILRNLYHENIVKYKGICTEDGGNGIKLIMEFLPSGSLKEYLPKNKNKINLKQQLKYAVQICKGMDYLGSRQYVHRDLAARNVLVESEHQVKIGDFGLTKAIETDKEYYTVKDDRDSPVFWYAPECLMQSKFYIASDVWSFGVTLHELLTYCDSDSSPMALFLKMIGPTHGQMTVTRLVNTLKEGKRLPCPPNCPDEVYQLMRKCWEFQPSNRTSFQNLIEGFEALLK
Chain of MEK5 (Q13163 whole entry): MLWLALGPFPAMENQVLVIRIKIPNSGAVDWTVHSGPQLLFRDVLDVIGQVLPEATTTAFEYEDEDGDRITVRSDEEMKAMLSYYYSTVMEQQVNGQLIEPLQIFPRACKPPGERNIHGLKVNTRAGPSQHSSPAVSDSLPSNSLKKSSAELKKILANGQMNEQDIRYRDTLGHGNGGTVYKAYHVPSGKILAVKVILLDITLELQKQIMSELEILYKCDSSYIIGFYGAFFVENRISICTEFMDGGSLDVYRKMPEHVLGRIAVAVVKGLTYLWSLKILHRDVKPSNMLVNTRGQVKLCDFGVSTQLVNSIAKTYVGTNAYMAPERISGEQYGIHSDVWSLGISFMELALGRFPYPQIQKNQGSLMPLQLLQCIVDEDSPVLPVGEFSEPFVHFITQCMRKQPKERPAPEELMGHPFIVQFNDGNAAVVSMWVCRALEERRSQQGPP

CNc1ncc2cc(-c3ccc(-c4cccc(C)n4)cc3Cl)c(=O)n(C[C@H]3OC[C@H](N)CO3)c2n1 [compound 6, G-5555]
Percent Control (JAK1; JH1 domain catalytic): 100% | Percent Control (JAK1; JH2 domain pseudokinase, 1 µM): 92% | Percent Control (SNARK): 2% | Percent Control (MEK5): 0.2% | Percent Control (FLT3(ITD,F691L)): 43% | Percent Control (CAMK2G): 100% | Percent Control (PCTK2): 100% | Percent Control (PLK4): 67% | Percent Control (EGFR(G719S)): 100% | Percent Control (BMPR1A): 85% | Percent Control (PRKD3): 20% | Percent Control (NEK6): 100% | Percent Control (DYRK2): 100% | Percent Control (IRAK4): 95% | Percent Control (PHKG1): 100% | Percent Control (MYLK3): 100% | Percent Control (CAMKK2): 100% | Percent Control (TNK1): 100% | Percent Control (MST3): 1.7% | Percent Control (PIK3CA(E545K)): 97% | Percent Control (PIK3CA(M1043I)): 100% | Percent Control (KIT(A829P)): 63% | Percent Control (CSNK1A1): 89% | Percent Control (PRKR): 94% | Percent Control (LKB1): 100% | Percent Control (RIOK3): 90% | Percent Control (PIK3CA(E545A)): 90% | Percent Control (CSF1R): 92% | Percent Control (FLT3(R834Q)): 100% | Percent Control (PIK3C2G): 100% | Percent Control (TRKB): 100%
